Measured values from ChEMBL document CHEMBL1141632, “Synthesis and evaluation of novel 3,4,6-substituted 2-quinolones as FMS kinase inhibitors” (Bioorg Med Chem Lett, 2008).
The source made the active and inactive calls. The rule behind the calls is not given here.

Columns and labels:
[1] = target: T1, Macrophage colony-stimulating factor 1 receptor (Homo sapiens, UniProt P07333); assay: Inhibition of human cytoplasmic macrophage colony-stimulating factor 1 receptor by fluorescence polarization
Mus musculus [2] = assay: Inhibition of FMS in B6C3F1 mouse assessed as reduction in CSF1-induced C-fos levels at 50 mg/kg, po; assay type: functional, organism-based; parameters: dose 50 mg/kg
Mus musculus [3] = assay: Inhibition of FMS in B6C3F1 mouse assessed as reduction in CSF1-induced C-fos levels at 20 mg/kg, po; assay type: functional, organism-based; parameters: dose 20 mg/kg
[4] = Inhibition of CSF1-induced human BMDM cell proliferation; assay type: functional, cell-based
Mus musculus [5] = assay: Inhibition of FMS in B6C3F1 mouse assessed as reduction in CSF1-induced C-fos levels at 5 mg/kg, po; assay type: functional, organism-based; parameters: dose 5 mg/kg
[6] = target: T1, Macrophage colony-stimulating factor 1 receptor; assay: Inhibition of human cytoplasmic macrophage colony-stimulating factor 1 receptor at 5 uM by fluorescence polarization
[7] = target: T2, Receptor-type tyrosine-protein kinase FLT3 (Homo sapiens, UniProt P36888); assay: Inhibition of FLT3
T2 sequence (P36888 whole entry): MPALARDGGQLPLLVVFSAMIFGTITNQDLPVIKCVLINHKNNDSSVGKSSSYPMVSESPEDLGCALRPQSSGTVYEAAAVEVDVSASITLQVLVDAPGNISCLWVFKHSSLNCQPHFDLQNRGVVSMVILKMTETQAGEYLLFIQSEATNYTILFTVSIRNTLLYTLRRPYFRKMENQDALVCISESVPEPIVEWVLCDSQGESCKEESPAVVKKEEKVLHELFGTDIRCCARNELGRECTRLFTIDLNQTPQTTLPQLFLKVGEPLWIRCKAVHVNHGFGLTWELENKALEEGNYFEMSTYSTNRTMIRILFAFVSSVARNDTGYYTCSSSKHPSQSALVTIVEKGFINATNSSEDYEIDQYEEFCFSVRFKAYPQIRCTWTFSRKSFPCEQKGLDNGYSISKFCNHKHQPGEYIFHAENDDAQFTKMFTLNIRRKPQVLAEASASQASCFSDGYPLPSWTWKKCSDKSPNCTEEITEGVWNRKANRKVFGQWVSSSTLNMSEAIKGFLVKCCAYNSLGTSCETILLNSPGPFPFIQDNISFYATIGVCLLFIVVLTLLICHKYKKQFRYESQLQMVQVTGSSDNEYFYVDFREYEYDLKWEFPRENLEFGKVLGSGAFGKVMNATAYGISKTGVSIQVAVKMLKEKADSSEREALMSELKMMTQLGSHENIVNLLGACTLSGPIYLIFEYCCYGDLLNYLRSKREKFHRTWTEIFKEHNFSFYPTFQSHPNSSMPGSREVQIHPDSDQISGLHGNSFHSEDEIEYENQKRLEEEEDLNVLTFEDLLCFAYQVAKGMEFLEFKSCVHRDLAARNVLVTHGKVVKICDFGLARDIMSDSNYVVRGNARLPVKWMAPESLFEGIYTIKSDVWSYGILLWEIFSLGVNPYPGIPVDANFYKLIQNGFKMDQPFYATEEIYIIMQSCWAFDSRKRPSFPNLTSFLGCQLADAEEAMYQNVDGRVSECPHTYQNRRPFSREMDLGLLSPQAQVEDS

[8] = target: Mast/stem cell growth factor receptor Kit (Homo sapiens, UniProt P10721); assay: Inhibition of KIT
[9] = target: Platelet-derived growth factor receptor beta (Homo sapiens, UniProt P09619); assay: Inhibition of PDGFRbeta
[10] = Half life in rat at 2 mg/kg, iv and 10 mg/kg, po; assay type: ADME, organism-based; conditions: in vivo
[11] = Oral bioavailability in rat at 10 mg/kg; assay type: ADME, organism-based; conditions: in vivo
[12] = Cmax in rat at 2 mg/kg, iv and 10 mg/kg, po; assay type: ADME, organism-based; conditions: in vivo
[13] = Clearance in rat at 2 mg/kg, iv and 10 mg/kg, po; assay type: ADME, organism-based; conditions: in vivo
[14] = Volume of distribution in rat at 2 mg/kg, iv and 10 mg/kg, po; assay type: ADME, organism-based; conditions: in vivo

T1 sequence (P07333 whole entry): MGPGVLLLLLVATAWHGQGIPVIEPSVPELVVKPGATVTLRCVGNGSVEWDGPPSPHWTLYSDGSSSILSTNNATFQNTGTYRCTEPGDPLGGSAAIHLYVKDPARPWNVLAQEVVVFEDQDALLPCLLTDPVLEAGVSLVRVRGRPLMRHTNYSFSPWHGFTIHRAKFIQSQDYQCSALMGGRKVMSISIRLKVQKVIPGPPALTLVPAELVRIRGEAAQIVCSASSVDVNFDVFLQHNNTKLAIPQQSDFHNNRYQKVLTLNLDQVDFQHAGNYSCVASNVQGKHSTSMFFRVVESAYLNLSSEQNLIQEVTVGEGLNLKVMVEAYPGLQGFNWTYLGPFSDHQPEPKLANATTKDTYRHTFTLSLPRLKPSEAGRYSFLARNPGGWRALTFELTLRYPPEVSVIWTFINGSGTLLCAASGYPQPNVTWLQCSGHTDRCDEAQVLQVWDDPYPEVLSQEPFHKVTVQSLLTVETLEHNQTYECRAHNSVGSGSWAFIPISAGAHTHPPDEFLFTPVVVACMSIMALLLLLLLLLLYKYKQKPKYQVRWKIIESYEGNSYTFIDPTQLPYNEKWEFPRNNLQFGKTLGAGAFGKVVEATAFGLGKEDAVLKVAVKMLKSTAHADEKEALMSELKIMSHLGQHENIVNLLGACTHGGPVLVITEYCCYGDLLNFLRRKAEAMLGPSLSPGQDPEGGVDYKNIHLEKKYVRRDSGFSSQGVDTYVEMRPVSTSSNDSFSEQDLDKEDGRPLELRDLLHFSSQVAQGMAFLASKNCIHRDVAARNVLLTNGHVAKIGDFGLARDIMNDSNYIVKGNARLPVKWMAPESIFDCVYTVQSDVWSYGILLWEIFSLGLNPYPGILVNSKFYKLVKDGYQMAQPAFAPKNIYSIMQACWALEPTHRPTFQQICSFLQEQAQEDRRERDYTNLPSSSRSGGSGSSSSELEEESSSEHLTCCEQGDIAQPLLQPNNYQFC
Chain of Platelet-derived growth factor receptor beta (P09619 whole entry): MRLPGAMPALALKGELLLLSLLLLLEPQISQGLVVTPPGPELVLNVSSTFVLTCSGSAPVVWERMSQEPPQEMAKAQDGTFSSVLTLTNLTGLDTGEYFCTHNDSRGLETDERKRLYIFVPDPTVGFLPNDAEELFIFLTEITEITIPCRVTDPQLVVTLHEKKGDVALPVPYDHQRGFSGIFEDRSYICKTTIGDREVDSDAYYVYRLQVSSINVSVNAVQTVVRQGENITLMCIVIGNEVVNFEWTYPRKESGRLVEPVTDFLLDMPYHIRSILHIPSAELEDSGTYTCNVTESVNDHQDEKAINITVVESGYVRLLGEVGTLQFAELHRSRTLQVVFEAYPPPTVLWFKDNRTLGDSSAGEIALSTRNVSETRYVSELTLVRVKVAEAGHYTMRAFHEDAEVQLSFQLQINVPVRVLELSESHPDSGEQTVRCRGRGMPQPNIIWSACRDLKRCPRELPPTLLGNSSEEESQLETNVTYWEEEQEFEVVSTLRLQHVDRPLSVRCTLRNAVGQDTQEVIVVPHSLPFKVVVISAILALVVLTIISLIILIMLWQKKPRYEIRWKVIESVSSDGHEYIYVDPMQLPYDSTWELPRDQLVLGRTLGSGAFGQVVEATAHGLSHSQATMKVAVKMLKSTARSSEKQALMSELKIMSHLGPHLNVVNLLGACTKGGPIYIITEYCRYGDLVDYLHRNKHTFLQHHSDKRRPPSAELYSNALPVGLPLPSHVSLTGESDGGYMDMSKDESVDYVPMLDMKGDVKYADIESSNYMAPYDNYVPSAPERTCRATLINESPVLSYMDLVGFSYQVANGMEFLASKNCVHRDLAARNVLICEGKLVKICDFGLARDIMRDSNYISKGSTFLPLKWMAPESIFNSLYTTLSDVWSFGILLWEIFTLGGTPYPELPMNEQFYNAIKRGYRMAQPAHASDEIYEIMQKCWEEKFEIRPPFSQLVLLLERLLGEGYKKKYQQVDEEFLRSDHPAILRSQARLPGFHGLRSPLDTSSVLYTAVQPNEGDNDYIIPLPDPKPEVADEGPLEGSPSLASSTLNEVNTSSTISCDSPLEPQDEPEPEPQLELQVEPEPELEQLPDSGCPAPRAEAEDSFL
Chain of Mast/stem cell growth factor receptor Kit (P10721 whole entry): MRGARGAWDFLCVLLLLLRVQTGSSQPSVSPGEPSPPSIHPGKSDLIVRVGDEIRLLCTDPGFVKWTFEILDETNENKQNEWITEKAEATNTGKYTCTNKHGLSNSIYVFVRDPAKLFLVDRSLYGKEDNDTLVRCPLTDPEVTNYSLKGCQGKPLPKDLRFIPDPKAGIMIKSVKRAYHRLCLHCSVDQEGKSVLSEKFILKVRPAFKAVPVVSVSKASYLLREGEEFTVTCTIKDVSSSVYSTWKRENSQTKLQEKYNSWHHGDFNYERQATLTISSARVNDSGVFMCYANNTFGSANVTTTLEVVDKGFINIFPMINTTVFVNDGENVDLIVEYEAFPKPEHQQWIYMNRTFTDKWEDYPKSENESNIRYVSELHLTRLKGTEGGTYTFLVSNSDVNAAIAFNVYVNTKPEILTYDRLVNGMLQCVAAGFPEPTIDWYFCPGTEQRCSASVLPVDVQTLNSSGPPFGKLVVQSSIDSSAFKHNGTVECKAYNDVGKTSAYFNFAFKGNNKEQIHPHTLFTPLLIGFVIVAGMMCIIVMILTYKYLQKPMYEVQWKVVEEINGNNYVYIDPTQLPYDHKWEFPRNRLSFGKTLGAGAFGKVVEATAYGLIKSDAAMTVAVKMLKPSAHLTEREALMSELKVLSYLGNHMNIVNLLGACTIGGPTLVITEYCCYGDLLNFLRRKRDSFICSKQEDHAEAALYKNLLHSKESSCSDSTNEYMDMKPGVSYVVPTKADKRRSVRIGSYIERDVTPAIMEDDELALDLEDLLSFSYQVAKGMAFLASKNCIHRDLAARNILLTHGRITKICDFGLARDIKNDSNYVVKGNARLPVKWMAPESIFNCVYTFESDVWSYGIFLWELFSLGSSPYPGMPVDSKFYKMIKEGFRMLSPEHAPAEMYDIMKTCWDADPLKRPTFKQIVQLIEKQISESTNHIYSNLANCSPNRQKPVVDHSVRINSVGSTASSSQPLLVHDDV

Cc1cc(-c2c(-c3ccccc3)c3ccccc3[nH]c2=O)on1
IC50 [1]: > 5000 nM

Cc1cc(-c2c(-c3ccccc3)c3ncccc3[nH]c2=O)on1
IC50 [1]: > 20000 nM

Cc1cc(-c2c(-c3ccccc3)c3cc(N)ccc3[nH]c2=O)on1
IC50 [1]: > 5000 nM

CCc1ccc(-c2c(-c3cnc(C)[nH]3)c(=O)[nH]c3ccc(C#N)cc23)cc1
Activity (Mus musculus [2]): Active | Activity (Mus musculus [3]): Active | IC50 [4]: 5 nM | Activity (Mus musculus [5]): Active

Cc1cc(-c2c(-c3ccccc3)c3cnccc3[nH]c2=O)on1
inhibition [6]: 8%

CCc1ccc(-c2c(-c3cnc(C)[nH]3)c(=O)[nH]c3ccc(Cl)cc23)cc1
IC50 [7]: 34 nM | IC50 [4]: 28 nM | IC50 [8]: 67 nM | IC50 [9]: > 1000 nM

CCc1ccc(-c2c(-c3c[nH]c(C)n3)c(=O)[nH]c3ccc(C#N)cc23)cc1
IC50 [7]: 47 nM | half-life [10]: 1.07 h | bioavailability [11]: 56% | IC50 [8]: 170 nM | Cmax [12]: 317 ng/mL | clearance [13]: 93 mL/min/kg | Vd [14]: 8.6 L/kg | IC50 [9]: > 1000 nM
